Bounds are passed on as bounds.

Test [1] deals with BaF3. Kind of test: Antiproliferative activity against mouse BaF3 cells expressing CCDC6-RET-V804M incubated for 72 hrs by CCK8 assay. Particulars: BaF3, 72 h. The class given is functional, cell-based.
Test [2] has as its system BaF3. Kind of test: Antiproliferative activity against mouse BaF3 cells expressing CCDC6-RET-G810R incubated for 72 hrs by CCK8 assay. It is filed as functional, cell-based. Particulars: BaF3, 72 h.
Test [3] relates to BaF3. Kind of test: Antiproliferative activity against mouse BaF3 cells expressing CCDC6-RET incubated for 72 hrs by CCK8 assay. It is filed as functional, cell-based. Particulars: BaF3, 72 h.
Test [4] deals with BaF3. The test can be described thus: Antiproliferative activity against mouse BaF3 cells expressing CCDC6-RET-G810C incubated for 72 hrs by CCK8 assay. It is filed as functional, cell-based. As to conditions: BaF3, 72 h.
In test [5] the target is Proto-oncogene tyrosine-protein kinase receptor Ret (Homo sapiens, UniProt P07949). The test can be described thus: Binding affinity to RET (unknown origin) assessed as dissociation constant in presence of ATP by FRET based Z'-Lyte assay.
Test [6] concerns BaF3. The test can be described thus: cells. Particulars: Mus musculus, BaF3, 72 h.
Description: Antiproliferative activity against mouse BaF3 cells incubated for 72 hrs by CCK8 assay

Chain of Proto-oncogene tyrosine-protein kinase receptor Ret (P07949 whole entry): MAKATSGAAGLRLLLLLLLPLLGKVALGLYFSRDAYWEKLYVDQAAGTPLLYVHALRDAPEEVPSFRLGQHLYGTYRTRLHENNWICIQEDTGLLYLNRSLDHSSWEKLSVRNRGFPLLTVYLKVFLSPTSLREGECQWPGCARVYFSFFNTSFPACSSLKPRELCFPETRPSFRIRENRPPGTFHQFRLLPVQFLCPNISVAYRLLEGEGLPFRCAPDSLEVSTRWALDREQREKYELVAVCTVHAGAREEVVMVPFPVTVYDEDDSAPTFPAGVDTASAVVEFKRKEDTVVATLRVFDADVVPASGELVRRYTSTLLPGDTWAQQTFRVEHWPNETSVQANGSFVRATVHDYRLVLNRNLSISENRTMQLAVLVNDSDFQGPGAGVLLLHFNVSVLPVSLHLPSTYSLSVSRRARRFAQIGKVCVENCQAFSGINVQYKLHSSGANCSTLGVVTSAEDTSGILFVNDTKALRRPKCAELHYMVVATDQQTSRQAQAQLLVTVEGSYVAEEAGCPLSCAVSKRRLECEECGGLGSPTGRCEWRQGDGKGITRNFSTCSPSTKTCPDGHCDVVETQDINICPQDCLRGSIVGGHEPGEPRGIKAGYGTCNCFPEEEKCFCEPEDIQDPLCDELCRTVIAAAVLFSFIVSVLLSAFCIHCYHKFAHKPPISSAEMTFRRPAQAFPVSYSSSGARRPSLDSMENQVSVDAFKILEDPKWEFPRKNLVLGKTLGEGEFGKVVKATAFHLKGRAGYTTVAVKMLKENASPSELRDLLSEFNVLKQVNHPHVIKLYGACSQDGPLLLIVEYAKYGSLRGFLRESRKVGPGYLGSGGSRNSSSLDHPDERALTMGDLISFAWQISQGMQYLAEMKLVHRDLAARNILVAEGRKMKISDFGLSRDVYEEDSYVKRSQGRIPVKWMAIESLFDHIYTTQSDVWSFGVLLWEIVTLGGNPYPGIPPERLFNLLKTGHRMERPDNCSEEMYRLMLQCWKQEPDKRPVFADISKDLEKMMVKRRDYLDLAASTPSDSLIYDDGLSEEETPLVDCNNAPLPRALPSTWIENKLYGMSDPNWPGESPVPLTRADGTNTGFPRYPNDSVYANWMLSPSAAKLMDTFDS

In the case of `CC(C)(C)c1cc(NC(=O)Nc2ccc(-c3cc(-c4cccc(OCCN5CCOCC5)c4)[nH]n3)cc2)no1`, the concentration for half-maximal inhibition (IC50) in test [1] is 188 nM; in test [2], 1020 nM; in test [3] it was 226 nM; in test [4] it was 587 nM; in test [6] it was 1560 nM. In addition, the Kd in test [5] was 6 nM.
For the compound `CC(C)(C)c1cc(NC(=O)Nc2ccc(-c3n[nH]c(-c4ccc(OCCN5CCOCC5)cc4Cl)n3)cc2)no1`, the 50% inhibitory concentration (IC50) worked out at 339 nM in test [1]; 869 nM in test [2]; 328 nM in test [3]; 682 nM in test [4]; 424 nM in test [6]. Also, the dissociation constant Kd in test [5] is 10.2 nM.
On to `COc1cc(NC(=O)Nc2cc(C(C)(C)C)on2)ccc1-c1cc(-c2ccc(OCCN3CCOCC3)cc2)[nH]n1`, for which the IC50 in test [1] was 437 nM; in test [2] it was 984 nM; in test [3] it was 387 nM; in test [4], 1130 nM; in test [6], 625 nM. In test [5], the Kd amounted to 32 nM.
For `COc1cc(-c2cc(-c3ccc(NC(=O)Nc4cc(C(C)(C)C)on4)cc3)n[nH]2)ccc1OCCN1CCOCC1`, the IC50 is 10.4 nM in test [1]; 417 nM in test [2]; 12.1 nM in test [3]; 131 nM in test [4]; 442 nM in test [6]. Besides, in test [5], the dissociation constant Kd came to 6.1 nM.
Regarding `CC(C)(C)c1cc(NC(=O)Nc2ccc(-c3cc(-c4ccc(OCCN5CCOCC5)c(F)c4)[nH]n3)cc2)no1`, the IC50 was 14 nM in test [1]; 2250 nM in test [2]; 10.6 nM in test [3]; 126 nM in test [4]; more than 10000 nM in test [6]. Also, in test [5], the Kd was 9.7 nM.
For `CC(C)(C)c1cc(NC(=O)Nc2ccc(-c3cc(-c4ccc(OCCN5CCOCC5)cc4)[nH]n3)c(Cl)c2)no1`, the half-maximal inhibitory concentration (IC50) is 209 nM in test [1]; 1010 nM in test [2]; 165 nM in test [3]; 410 nM in test [4]; 1050 nM in test [6]. Also, the Kd in test [5] was found to be 16 nM.
Consider `CN(C)CCOc1ccc(-c2cc(-c3ccc(NC(=O)Nc4cc(C(C)(C)C)on4)cc3)n[nH]2)cc1`, for which the IC50 in test [1] was found to be 8.5 nM; in test [2], 842 nM; in test [3], 7.9 nM; in test [4], 103 nM; in test [6], 1950 nM. In test [5], the equilibrium dissociation constant (Kd) amounted to 3.2 nM.
With `CC(C)(C)c1cc(NC(=O)Nc2ccc(-c3c[nH]c(-c4ccc(OCCN5CCOCC5)cc4Cl)n3)cc2)no1`, the concentration for half-maximal inhibition (IC50) in test [1] was found to be 491 nM; in test [2], 716 nM; in test [3] it was 404 nM; in test [4], 802 nM; in test [6] it was 772 nM. Further, the dissociation constant Kd in test [5] amounted to 31.5 nM.
Turning to `COc1cc(-c2cc(-c3ccc(NC(=O)Nc4cc(C(C)(C)C(F)(F)F)on4)c(F)c3)n[nH]2)ccc1OCCN1CCOCC1`, the half-maximal inhibitory concentration (IC50) was 3.9 nM in test [1]; 319 nM in test [2]; 3 nM in test [3]; 118 nM in test [4]; 373 nM in test [6]. Besides, the dissociation constant (Kd) in test [5] came out at 9 nM.
In the case of `CC(C)(C)c1cc(NC(=O)Nc2ccc(-c3cc(-c4ccc(OCCN5CCOCC5)c(Cl)c4)[nH]n3)cc2)no1`, the half-maximal inhibitory concentration (IC50) in test [1] was 27.9 nM; in test [2], more than 10000 nM; in test [3], 20.4 nM; in test [4], 159 nM; in test [6] it was more than 10000 nM. Further, the Kd in test [5] was 9.4 nM.
For the compound `Cc1cc(OCCN2CCOCC2)ccc1-c1cc(-c2ccc(NC(=O)Nc3cc(C(C)(C)C)on3)cc2)n[nH]1`, the half-maximal inhibitory concentration (IC50) in test [1] was 173 nM; in test [2], 1960 nM; in test [3], 120 nM; in test [4], 2040 nM; in test [6], more than 3000 nM. Besides, in test [5], the dissociation constant (Kd) stood at 12.5 nM.
Regarding `CC(C)(C)c1cc(NC(=O)Nc2ccc(-c3cc(-c4ccc(OCCN5CCOCC5)cc4Br)[nH]n3)cc2)no1`, the IC50 in test [1] came to 62 nM; in test [2], 1280 nM; in test [3] it was 67 nM; in test [4], 606 nM; in test [6], 1210 nM. Besides, the Kd in test [5] was 15.5 nM.
Turning to `CC(C)(C)c1cc(NC(=O)Nc2ccc(-c3cc(-c4ccc(OCCN5CCOCC5)cc4Cl)[nH]n3)cc2)no1`, the IC50 was 35.5 nM in test [1]; 626 nM in test [2]; 36.2 nM in test [3]; 533 nM in test [4]; more than 10000 nM in test [6]. In test [5], the Kd was determined as 11 nM.
Consider `Cc1cc(NC(=O)Nc2cc(C(C)(C)C)on2)ccc1-c1cc(-c2ccc(OCCN3CCOCC3)cc2)[nH]n1`, for which the half-maximal inhibitory concentration (IC50) in test [1] is 33.9 nM; in test [2], 2020 nM; in test [3], 35.6 nM; in test [4], 196 nM; in test [6] it was more than 10000 nM. In test [5], the equilibrium dissociation constant (Kd) amounted to 18 nM.
As for `CO[C@]1(C(=O)N[C@@H](C)c2ccc(-n3cc(F)cn3)nc2)CC[C@@H](c2nc(C)cc(Nc3cc(C)[nH]n3)n2)CC1`, the IC50 turned out to be 4.1 nM in test [1]; 358 nM in test [2]; 5 nM in test [3]; 114 nM in test [4]; 1040 nM in test [6].
In the case of `COc1cc(-c2cc(-c3ccc(NC(=O)Nc4cc(C(C)(C)C)on4)c(F)c3)n[nH]2)ccc1OCCN1CCOCC1`, the 50% inhibitory concentration (IC50) in test [1] was 7.4 nM; in test [2] it was 313 nM; in test [3] it was 6.7 nM; in test [4], 122 nM; in test [6], more than 10000 nM. Moreover, the Kd in test [5] was 10.2 nM.
Turning to `CN(C)CCCOc1ccc(-c2cc(-c3ccc(NC(=O)Nc4cc(C(C)(C)C)on4)cc3)n[nH]2)cc1`, the IC50 in test [1] was determined as 10.5 nM; in test [2] it was 532 nM; in test [3], 9.3 nM; in test [4], 131 nM; in test [6], 1180 nM. For the same compound, in test [5], the Kd turned out to be 2 nM.
`COc1cc(-c2cc(-c3ccc(NC(=O)Nc4cc(C(C)(C)C(F)(F)F)on4)cc3)n[nH]2)ccc1OCCN1CCOCC1`: the half-maximal inhibitory concentration (IC50) was 5.2 nM in test [1]; 230 nM in test [2]; 7.1 nM in test [3]; 139 nM in test [4]; 184 nM in test [6]. Moreover, the Kd in test [5] was determined as 5.6 nM.
As for `CC(C)(C)c1cc(NC(=O)Nc2ccc(-c3cc(-c4ccc(OCCN5CCOCC5)cc4)[nH]n3)cc2Cl)no1`, the IC50 in test [1] was 36 nM; in test [2], 746 nM; in test [3] it was 29 nM; in test [4], 335 nM; in test [6], more than 10000 nM. In addition, the dissociation constant Kd in test [5] was determined as 21 nM.
For the compound `CC(C)(C)c1cc(NC(=O)Nc2ccc(-c3cn(-c4ccc(OCCN5CCOCC5)cc4Cl)nn3)cc2)no1`, the IC50 was 1180 nM in test [1]; 1070 nM in test [2]; 585 nM in test [3]; 1830 nM in test [4]; 1090 nM in test [6]. Also, the Kd in test [5] was found to be 26.5 nM.
With `COc1ccc(CN2[C@@H]3C[C@H]2CN(c2ccc(-c4cc(OCC(C)(C)O)cn5ncc(C#N)c45)cn2)C3)cn1`, the IC50 in test [1] was 26 nM; in test [2] it was 883 nM; in test [3], 11.5 nM; in test [4], 1310 nM; in test [6] it was more than 3000 nM.
As to `CC(C)(C)c1cc(NC(=O)Nc2ccc(-c3cc(-c4ccc(OCCN5CCOCC5)cc4F)[nH]n3)cc2)no1`, the half-maximal inhibitory concentration (IC50) is 18.1 nM in test [1]; more than 10000 nM in test [2]; 17.9 nM in test [3]; 412 nM in test [4]; more than 10000 nM in test [6]. The Kd in test [5] turned out to be 8.3 nM.
In the case of `CC(C)(C)c1cc(NC(=O)Nc2ccc(-c3cc(-c4ccc(OCCCN5CCOCC5)cc4)[nH]n3)cc2)no1`, the half-maximal inhibitory concentration (IC50) in test [1] stood at 12.4 nM; in test [2] it was 570 nM; in test [3] it was 9.6 nM; in test [4], 166 nM; in test [6] it was 1080 nM. Moreover, in test [5], the Kd worked out at 4.1 nM.
For `CC(C)(C)c1cc(NC(=O)Nc2ccc(-c3cc(-c4ccc(OCCN5CCOCC5)cc4)[nH]n3)cc2F)no1`, the IC50 was 6.6 nM in test [1]; 1320 nM in test [2]; 7.1 nM in test [3]; 99.9 nM in test [4]; more than 3000 nM in test [6]. Moreover, the dissociation constant Kd in test [5] worked out at 8.1 nM.
